Patent US10405547B2, “Substituted cyclic amides as herbicides” (FMC Corporation, priority 2015, dated 2019)

Tests used:
Assay type in all cases: in vivo
[1] = test system: ryegrass, Italian (Lolium multiflorum); assay: Test A preemergence, Italian ryegrass; settings: 0 to 100 scale (0 no effect, 100 complete control)
Summary of the method: (§1)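 Greenhouse pot test in loam/sand soil. Pre: directed soil spray after seeding. Post: 1–2-leaf plants, 2–10 cm. Formulation: non-phytotoxic solvent + surfactant. Visual rating vs untreated controls at ~10 d, 0 (no effect) to 100 (complete control).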

[2] = test system: barnyardgrass (Echinochloa crus-galli); assay: Test A preemergence, barnyardgrass; settings: 0 to 100 scale (0 no effect, 100 complete control)
Summary of the method: as §1

[3] = test system: sedge, umbrella (small-flower umbrella sedge, Cyperus difformis); assay: Test B flooded paddy test, umbrella sedge; settings: applied to paddy water, visual rating after 13 to 15 days, scale 0 (no effect) to 100 (complete control)
Summary of the method: (§2)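 Pots were flooded to 3 cm above the soil surface at treatment, compound applied directly to the paddy water, and that depth held throughout. Plants were kept in a greenhouse for 13 to 15 days, then visually rated against untreated controls.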

[4] = test system: barnyardgrass (Echinochloa crus-galli); assay: Test B flooded paddy test, barnyardgrass; settings: applied to paddy water, visual rating after 13 to 15 days, scale 0 (no effect) to 100 (complete control)
Summary of the method: as §2

kochia (Kochia scoparia) [5] = assay: Test A postemergence, kochia; settings: 0 to 100 scale (0 no effect, 100 complete control)
Summary of the method: as §1

[6] = test system: foxtail, giant (Setaria faberii); assay: Test A preemergence, giant foxtail; settings: 0 to 100 scale (0 no effect, 100 complete control)
Summary of the method: as §1

[7] = test system: pigweed (Amaranthus retroflexus); assay: Test A preemergence, pigweed; settings: 0 to 100 scale (0 no effect, 100 complete control)
Summary of the method: as §1

[8] = test system: ducksalad (Heteranthera limosa); assay: Test B flooded paddy test, ducksalad; settings: applied to paddy water, visual rating after 13 to 15 days, scale 0 (no effect) to 100 (complete control)
Summary of the method: as §2

[9] = test system: ryegrass, Italian (Lolium multiflorum); assay: Test A postemergence, Italian ryegrass; settings: 0 to 100 scale (0 no effect, 100 complete control)
Summary of the method: as §1

[10] = test system: foxtail, giant (Setaria faberii); assay: Test A postemergence, giant foxtail; settings: 0 to 100 scale (0 no effect, 100 complete control)
Summary of the method: as §1

kochia (Kochia scoparia) [11] = assay: Test A preemergence, kochia; settings: 0 to 100 scale (0 no effect, 100 complete control)
Summary of the method: as §1

corn (Zea mays) = assay: Test A postemergence, corn; settings: 0 to 100 scale (0 no effect, 100 complete control)
Summary of the method: as §1

[12] = test system: pigweed (Amaranthus retroflexus); assay: Test A postemergence, pigweed; settings: 0 to 100 scale (0 no effect, 100 complete control)
Summary of the method: as §1

[13] = test system: wheat (Triticum aestivum); assay: Test A postemergence, wheat; settings: 0 to 100 scale (0 no effect, 100 complete control)
Summary of the method: as §1

[14] = test system: ragweed (common ragweed, Ambrosia elatior); assay: Test A preemergence, ragweed; settings: 0 to 100 scale (0 no effect, 100 complete control)
Summary of the method: as §1

rice (Oryza sativa) = assay: Test B flooded paddy test, rice; settings: applied to paddy water, visual rating after 13 to 15 days, scale 0 (no effect) to 100 (complete control)
Summary of the method: as §2

[15] = test system: barnyardgrass (Echinochloa crus-galli); assay: Test A postemergence, barnyardgrass; settings: 0 to 100 scale (0 no effect, 100 complete control)
Summary of the method: as §1

[16] = test system: blackgrass (Alopecurus myosuroides); assay: Test A postemergence, blackgrass; settings: 0 to 100 scale (0 no effect, 100 complete control)
Summary of the method: as §1

[17] = test system: ragweed (common ragweed, Ambrosia elatior); assay: Test A postemergence, ragweed; settings: 0 to 100 scale (0 no effect, 100 complete control)
Summary of the method: as §1

[18] = test system: galium (catchweed bedstraw, Galium aparine); assay: Test A postemergence, galium; settings: 0 to 100 scale (0 no effect, 100 complete control)
Summary of the method: as §1

[19] = 125 g ai/ha, visual injury, approximately 10 days
[20] = 500 g ai/ha, visual injury, approximately 10 days

Structure (SMILES)	Plant response rating, Ryegrass, Italian ([1]; 125 g ai/ha)	Plant response rating, Ryegrass, Italian ([1]; 500 g ai/ha)	Plant response rating, Barnyardgrass ([2]; 125 g ai/ha)	Plant response rating, Barnyardgrass ([2]; 500 g ai/ha)	Plant response rating, Sedge, Umbrella (Flood) ([3]; 500 g ai/ha)	Plant response rating, Barnyardgrass (Flood) ([4]; 500 g ai/ha)	Plant response rating, Kochia (kochia (Kochia scoparia) [5]; [19])	Plant response rating, Foxtail, Giant ([6]; 125 g ai/ha)	Plant response rating, Pigweed ([7]; 125 g ai/ha)	Plant response rating, Ryegrass, Italian [9, 19]	Plant response rating, Foxtail, Giant [10, 19]	Plant response rating, Kochia (kochia (Kochia scoparia) [11]; 125 g ai/ha)	Plant response rating, Corn (corn (Zea mays); [19])	Plant response rating, Pigweed [12, 19]	Plant response rating, Wheat [13, 19]	Plant response rating, Ragweed ([14]; 125 g ai/ha)	Plant response rating, Barnyardgrass [15, 19]	Plant response rating, Blackgrass [16, 19]	Plant response rating, Ragweed [17, 19]	Plant response rating, Galium [18, 19]	further results
O=C1NCC(c2cccc(OCc3ccccc3)c2)C1C(=O)Nc1ccc(F)c(F)c1F (stereo not drawn) [Compound 66]	0	0	0	0	0	0	0	0	0	0	0	0	0	0	0	0	0	0	0	0	Plant response rating, Kochia (kochia (Kochia scoparia) [5]; [20]): 0; Plant response rating, Foxtail, Giant ([6]; 500 g ai/ha): 0; Plant response rating, Pigweed ([7]; 500 g ai/ha): 0; Plant response rating, Ducksalad (Flood) ([8]; 500 g ai/ha): 0; Plant response rating, Ryegrass, Italian [9, 20]: 0; Plant response rating, Foxtail, Giant [10, 20]: 0; Plant response rating, Kochia (kochia (Kochia scoparia) [11]; 500 g ai/ha): 0; Plant response rating, Corn (corn (Zea mays); [20]): 0; Plant response rating, Pigweed [12, 20]: 0; Plant response rating, Wheat [13, 20]: 0; Plant response rating, Ragweed ([14]; 500 g ai/ha): 0; Plant response rating, Rice (Flood) (rice (Oryza sativa); 500 g ai/ha): 0; Plant response rating, Barnyardgrass [15, 20]: 0; Plant response rating, Blackgrass [16, 20]: 0; Plant response rating, Ragweed [17, 20]: 0; Plant response rating, Galium [18, 20]: 0
O=C1NCC(c2cccc(OCc3ccccc3)c2)C1C(=O)Nc1ccccc1Cl (stereo not drawn) [Compound 67]	0	0	0	0	0	0	0	0	0	0	0	0	0	0	0	0	0	0	0	0	Plant response rating, Kochia (kochia (Kochia scoparia) [5]; [20]): 0; Plant response rating, Foxtail, Giant ([6]; 500 g ai/ha): 0; Plant response rating, Pigweed ([7]; 500 g ai/ha): 0; Plant response rating, Ducksalad (Flood) ([8]; 500 g ai/ha): 0; Plant response rating, Ryegrass, Italian [9, 20]: 0; Plant response rating, Foxtail, Giant [10, 20]: 0; Plant response rating, Kochia (kochia (Kochia scoparia) [11]; 500 g ai/ha): 0; Plant response rating, Corn (corn (Zea mays); [20]): 0; Plant response rating, Pigweed [12, 20]: 0; Plant response rating, Wheat [13, 20]: 0; Plant response rating, Ragweed ([14]; 500 g ai/ha): 0; Plant response rating, Rice (Flood) (rice (Oryza sativa); 500 g ai/ha): 0; Plant response rating, Barnyardgrass [15, 20]: 0; Plant response rating, Blackgrass [16, 20]: 0; Plant response rating, Ragweed [17, 20]: 0; Plant response rating, Galium [18, 20]: 0
O=C1NCC(c2cccc(Oc3ccccn3)c2)C1C(=O)Nc1cccc(F)c1F (stereo not drawn) [Compound 68]	0	0	20	50	0	20	0	60	0	0	0	0	0	0	0	0	10	0	0	0	Plant response rating, Kochia (kochia (Kochia scoparia) [5]; [20]): 0; Plant response rating, Foxtail, Giant ([6]; 500 g ai/ha): 90; Plant response rating, Pigweed ([7]; 500 g ai/ha): 0; Plant response rating, Ducksalad (Flood) ([8]; 500 g ai/ha): 80; Plant response rating, Ryegrass, Italian [9, 20]: 0; Plant response rating, Foxtail, Giant [10, 20]: 60; Plant response rating, Kochia (kochia (Kochia scoparia) [11]; 500 g ai/ha): 0; Plant response rating, Corn (corn (Zea mays); [20]): 0; Plant response rating, Pigweed [12, 20]: 0; Plant response rating, Wheat [13, 20]: 0; Plant response rating, Ragweed ([14]; 500 g ai/ha): 0; Plant response rating, Rice (Flood) (rice (Oryza sativa); 500 g ai/ha): 0; Plant response rating, Barnyardgrass [15, 20]: 40; Plant response rating, Blackgrass [16, 20]: 20; Plant response rating, Ragweed [17, 20]: 0; Plant response rating, Galium [18, 20]: 0
O=C1NCC(c2cccc(Oc3ccccn3)c2)C1C(=O)Nc1ccccc1Cl (stereo not drawn) [Compound 69]	0	0	0	0	0	0	0	0	0	0	0	0	0	0	0	0	0	0	0	0	Plant response rating, Kochia (kochia (Kochia scoparia) [5]; [20]): 0; Plant response rating, Foxtail, Giant ([6]; 500 g ai/ha): 50; Plant response rating, Pigweed ([7]; 500 g ai/ha): 0; Plant response rating, Ducksalad (Flood) ([8]; 500 g ai/ha): 70; Plant response rating, Ryegrass, Italian [9, 20]: 0; Plant response rating, Foxtail, Giant [10, 20]: 30; Plant response rating, Kochia (kochia (Kochia scoparia) [11]; 500 g ai/ha): 0; Plant response rating, Corn (corn (Zea mays); [20]): 0; Plant response rating, Pigweed [12, 20]: 0; Plant response rating, Wheat [13, 20]: 0; Plant response rating, Ragweed ([14]; 500 g ai/ha): 0; Plant response rating, Rice (Flood) (rice (Oryza sativa); 500 g ai/ha): 0; Plant response rating, Barnyardgrass [15, 20]: 20; Plant response rating, Blackgrass [16, 20]: 0; Plant response rating, Ragweed [17, 20]: 0; Plant response rating, Galium [18, 20]: 0
CN1C[C@H](c2cccc(Oc3ccc(F)cn3)c2)[C@@H](C(=O)Nc2ccc(F)c(F)c2F)C1=O [Compound 87, (3S,4S)-4-[3-[(5-fluoro-2-pyridinyl)oxy]phenyl]-1-methyl-2-oxo-N-(2,3,4-trifluorophenyl)-3-pyrrolidinecarboxamide]	80		90				30	90	70	70	80	60	90	70	40	0	80	60	0	60	Plant response rating, Ryegrass, Italian ([1]; 31 g ai/ha): 0; Plant response rating, Barnyardgrass ([2]; 31 g ai/ha): 60; Plant response rating, Sedge, Umbrella (Flood) ([3]; 250 g ai/ha): 0; Plant response rating, Barnyardgrass (Flood) ([4]; 250 g ai/ha): 60; Plant response rating, Kochia (kochia (Kochia scoparia) [5]; 31 g ai/ha): 0; Plant response rating, Foxtail, Giant ([6]; 31 g ai/ha): 90; Plant response rating, Pigweed ([7]; 31 g ai/ha): 70; Plant response rating, Ducksalad (Flood) ([8]; 250 g ai/ha): 85; Plant response rating, Ryegrass, Italian ([9]; 31 g ai/ha): 40; Plant response rating, Foxtail, Giant ([10]; 31 g ai/ha): 70; Plant response rating, Kochia (kochia (Kochia scoparia) [11]; 31 g ai/ha): 0; Plant response rating, Corn (corn (Zea mays); 31 g ai/ha): 60; Plant response rating, Pigweed ([12]; 31 g ai/ha): 0; Plant response rating, Wheat ([13]; 31 g ai/ha): 0; Plant response rating, Ragweed ([14]; 31 g ai/ha): 0; Plant response rating, Rice (Flood) (rice (Oryza sativa); 250 g ai/ha): 0; Plant response rating, Barnyardgrass ([15]; 31 g ai/ha): 50; Plant response rating, Blackgrass ([16]; 31 g ai/ha): 30; Plant response rating, Ragweed ([17]; 31 g ai/ha): 0; Plant response rating, Galium ([18]; 31 g ai/ha): 30
